Experimental data: PMC11643677, “In Silico Prediction of Alkaline Phosphatase Interaction with the Natural Inhibitory 5-Azaindoles Guitarrin C and D” (Molecules, 2024)
“Also recorded” adds a separate entry of the source.

What was measured:
[1] = tested on: ALP; set-up: method as in PMID 25694083, PMID 37274413, PMID 36362051; details: standard inhibitory ligands of ALP ref 17-19; cited from earlier work
[2] = biological target: T1, alkaline phosphatase CmAP (Cobetia amphilecti, UniProt Q1W622); set-up: method as in PMID 31181923; details: cited from earlier work; for inhibitory activity against CmAP: previous study ref 33; for affinity relative to the chelator EDTA: CmAP, higher affinity than EDTA ref 33
[3] = biological target: Vibrio splendidus alkaline phosphatase (VAP); set-up: method as in PMID 33102813; details: cited from earlier work
[4] = biological target: T2, calf intestinal alkaline phosphatase (CIAP) (Bos taurus, UniProt P19111); experiment: Inhibitory activity assay on calf intestinal alkaline phosphatase (pNPP hydrolysis); format: biochemical; details: for IC50: 2 mM pNPP, 0.1 M Tris-HCl pH 10.0, 0.2 M KCl, 37 °C, 60 min preincubation, mean of three ± SD; for Ki: by the Cheng–Prusoff formula Ki = IC50/(1 + [S]/Km)
T2 construct: purchased Invitrogen, Thermo Fisher Scientific 18009019
Method: (§1) The enzymatic activity was evaluated through the addition of 5 μL of the protein solution sample to a solution of 495 μL buffer, comprising 0.1 M Tris-HCl (pH 10.0), 0.2 M KCl, and 2 mM pNPP. The reaction mixture was incubated at 37 °C for a period of 30 min. To halt the reaction, 2 mL of chilled 0.5 M NaOH was introduced. The quantity of p-nitrophenol (pNP) produced was quantified spectrophotometrically at a wavelength of 400 nm, with the control sample, which lacked the enzyme, serving as a reference point. The specific activity was calculated using the following formula: (2.5 × OD400)/(18.6 × 0.005 × t × C), where OD400 is the optical density at a wavelength of 400 nm, 2.5 is the volume of the reaction mixture in mL, 18.6 is the extinction coefficient of pNP (M^−1/cm^−1), t is the incubation time at 37 °C in minutes, 0.005 is the sample volume in mL, and C is the protein concentration in the sample (mg/mL). The quantity of enzyme required for the generation of 1 µM pNP within a one-minute period was established as the unit of activity.
(§2) The effect of the natural inhibitors guitarrins C and D [33] on the activity of the alkaline phosphatases CmAP from C. amphilecti KMM 296 and calf intestinal alkaline phosphatase (CIAP, Invitrogen™ 18009019, Thermo Fisher Scientific, Waltham, MA, USA) was investigated in a buffer containing 0.1 M tris-HCl (pH 10.0) with 0.2 KCl. […] The activity of ALPs was determined using the standard method described above. CmAP (3.22 mg/mL, 2929 U/mg) and CIAP (0.99 mg/mL, 647 U/mg) were dissolved in 50 mM tris-HCl (pH 8.0) buffer with 2 mM MgCl2. Results were presented as the percentage of inhibition relative to control activity. The IC50 for each compound tested was defined as the concentration of compound that inhibited the enzyme activity by 50%. IC50 values are given as the mean of three experiments and standard deviation.
(§3) The kinetic parameters (Km and Vmax) were determined for alkaline phosphatases CmAP and CIAP. The mean Km values and standard deviations were presented. […] The inhibition constant, Ki, was determined using the Cheng–Prusoff formula [51]. The binding activity of the inhibitor to the reactive substrate (Ki) can be calculated using the following formula: Ki = IC50/(1 + [S]/Km), where IC50 is the functional activity of the inhibitor, [S] is the concentration of the reactive substrate, and KM is the Michaelis constant. The results were presented in the Origin 7.0 software.

[5] = biological target: T1, alkaline phosphatase CmAP; experiment: Inhibitory activity assay and kinetics on alkaline phosphatase CmAP (pNPP hydrolysis); format: biochemical, Cobetia amphilecti KMM 296; details: for IC50: 2 mM pNPP, 0.1 M Tris-HCl pH 10.0, 0.2 M KCl, 37 °C, 60 min preincubation, mean of three ± SD; for residual activity: at maximum inhibition; for Ki: by the Cheng–Prusoff formula Ki = IC50/(1 + [S]/Km); for type of inhibition: pNPP substrate; for Vmax in the presence of inhibitor: pNPP, guitarrin C 52.0 µM, guitarrin D 96.0 µM, 60 min preincubation at 23 °C, without inhibitor 5.98 ± 0.03
Method: as §1, §2, §3

T2 sequence (P19111 20-506 limits assumed): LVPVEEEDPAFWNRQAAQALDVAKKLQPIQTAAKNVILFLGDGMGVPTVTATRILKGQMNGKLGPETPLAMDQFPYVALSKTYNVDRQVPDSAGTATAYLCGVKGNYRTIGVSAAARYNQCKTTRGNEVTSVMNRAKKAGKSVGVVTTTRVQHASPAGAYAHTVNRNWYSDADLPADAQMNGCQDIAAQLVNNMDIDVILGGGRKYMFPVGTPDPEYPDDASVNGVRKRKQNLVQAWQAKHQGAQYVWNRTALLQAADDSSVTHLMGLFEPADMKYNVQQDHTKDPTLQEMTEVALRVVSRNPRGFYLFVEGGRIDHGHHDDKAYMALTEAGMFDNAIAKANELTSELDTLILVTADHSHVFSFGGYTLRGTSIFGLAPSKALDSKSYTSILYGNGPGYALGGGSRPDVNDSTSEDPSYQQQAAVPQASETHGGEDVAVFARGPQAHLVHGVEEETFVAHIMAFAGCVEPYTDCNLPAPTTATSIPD
T1 sequence (Q1W622 entry or part of it): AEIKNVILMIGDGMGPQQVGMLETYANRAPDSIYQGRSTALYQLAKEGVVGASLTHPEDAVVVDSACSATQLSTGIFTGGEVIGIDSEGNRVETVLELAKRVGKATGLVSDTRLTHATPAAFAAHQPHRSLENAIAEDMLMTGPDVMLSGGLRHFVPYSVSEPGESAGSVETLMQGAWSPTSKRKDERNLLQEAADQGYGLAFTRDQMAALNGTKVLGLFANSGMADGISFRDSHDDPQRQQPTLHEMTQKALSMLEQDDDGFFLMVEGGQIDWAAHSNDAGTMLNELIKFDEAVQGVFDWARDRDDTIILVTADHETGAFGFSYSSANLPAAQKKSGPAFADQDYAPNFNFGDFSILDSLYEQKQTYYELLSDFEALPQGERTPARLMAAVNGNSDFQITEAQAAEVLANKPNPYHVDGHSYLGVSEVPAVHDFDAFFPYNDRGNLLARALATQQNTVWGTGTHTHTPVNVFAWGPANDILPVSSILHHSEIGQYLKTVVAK

In the case of `Cn1c(=O)c2[nH]cnc2n(C)c1=O` [theophylline], the IC50 [1] is listed as 47 µM and the Ki [1] is listed as 91 µM.
For guitarrin E, the “inhibitory activity against CmAP” value [2] is listed as “no inhibitory activity; also recorded: non-inhibitory”.
For `c1ccc([C@H]2CN3CCSC3=N2)cc1` [levamisole], the IC50 [1] is given as 19 µM.
In the case of guitarrin A, the “inhibitory activity against CmAP” value [2] is given as “no inhibitory activity; also recorded: non-inhibitory”.
For `N[C@@H](Cc1ccccc1)C(=O)O` [L-phenylalanine], the IC50 [1] is listed as 80 µM.
For `NC1CCCCC1` [cyclohexylamine], the IC50 ([3]; VAP ref 27) is listed as 35700 µM, the “Michaelis–Menten constant in the presence of inhibitor (unchanging)” value ([3]; VAP ref 27) is listed as 195 ± 4 µM and the type of inhibition ([3]; VAP ref 27) is listed as “non-competitive”. The Ki ([3]; VAP, Ki equal to IC50 ref 27) was 35700 µM.
For `O=C(O)c1cc2[nH]ccc2c(CO)n1` [guitarrin C], the “affinity relative to the chelator EDTA” value [2] is given as 1000 fold, the “inhibitory activity against CmAP” value [2] is given as “pronounced inhibitory activity” and the “maximum inhibition of activity” value [4] is given as 57%. For the same compound, the IC50 [4] was 195 ± 2.2 µM, the Ki [4] was 38 ± 0.1 µM and the type of inhibition ([4]; pNPP substrate) was “non-competitive”. The “maximum inhibition of activity” value [5] was 85%, the IC50 [5] was 8.5 ± 0.08 µM and the residual activity [5] was 15%. For the same compound, the Ki [5] was 1.58 ± 0.04 µM, the “activity relative to guitarrin D” value ([5]; more active) was 10 fold and the type of inhibition [5] was “non-competitive”. The “Vmax in the presence of inhibitor” value [5] was 2.62 ± 0.02 U mL^−1.
For `O=C(O)c1nc(CO)c2cc[nH]c2c1O` [guitarrin D], the “affinity relative to the chelator EDTA” value [2] is given as 100 fold, the “inhibitory activity against CmAP” value [2] is given as “pronounced inhibitory activity” and the “difference in inhibitory activity compared to guitarrin C” value [4] is given as 1.2 fold. For the same compound, the “maximum inhibition of activity” value [4] was 57%, the IC50 [4] was 230 ± 1.6 µM and the Ki [4] was 45 ± 0.2 µM. The “maximum inhibition of activity” value [5] was 85%, the IC50 [5] was 110 ± 0.8 µM and the residual activity [5] was 15%. The Ki [5] was 20.56 ± 0.06 µM, the type of inhibition [5] was “mixed type of inhibition” and the “Vmax in the presence of inhibitor” value [5] was 3.98 ± 0.02 U mL^−1. For the same compound, the “decrease in Vmax” value ([5]; with versus without inhibitor) was “more than 2 fold”.
